Assays:
IP = molecular target: T1, IP (Homo sapiens, UniProt P43119); assay: agonist activity on human IP receptor (cAMP production, IP-CHO cells); type: cell-based
T1 construct: expressed in transfected cells; host or cells: CHO (IP-CHO)
Procedure: (§1) Using CHO cells (EP1-CHO, EP2-CHO, EP3-Chem1, EP4-CHO and IP-CHO) on which various human prostanoid receptors were forcibly expressed, the agonist activity of the test compound on the various prostanoid receptors was examined using the intracellular calcium concentration for EP1 and EP3, and the intracellular cyclic AMP (hereinafter, abbreviated as cAMP) production amount for EP2, EP4 and IP as indices.
(§2) The test compound and control substances (PGE2 and iloprost) were dissolved in dimethyl sulfoxide (DMSO) to prepare a 10 mmol/L solution. […]
(§3) On the day of the measurement, EP2-CHO, EP4-CHO, and IP-CHO were obtained by thawing frozen cells. […] The cAMP concentration was measured using a cAMP HTRF HiRange kit (CIS bio International). […] After incubation for 1 hour, time-resolved fluorescence at 620 nm and 660 nm when excited at 340 nm was measured using Synergy Neo (Bioteck), and the ratio (TRF ratio) was determined to calculate the cAMP concentration from the calibration curve.

[1] = tested on: rat renal ischemia reperfusion (IR) model; assay: in vivo drug efficacy in rat renal ischemia reperfusion (IR) model; parameters: species or system Crl : CD (SD) rats; conditions: subcutaneous osmotic pump
Procedure: The effect of the present compound on renal IR damage was evaluated using male rats.
Male Crl : CD (SD) rats aged 3 or 4 weeks were purchased from Charles River Laboratories Japan, and subjected to experiments. Animals were fed ad libitum with FR-2 (Funabashi Farm) at the time of arrival and with solid feed CE-2 (CLEA Japan) for one week before single kidney removal, and watered ad libitum.
After acclimation breeding, the right kidney was removed about 7 days before renal IR treatment. Specifically, the rats were allowed to inhale isoflurane (Mylan) for anesthesia, and administered buprenorphine (Otsuka Pharmaceutical) as an analgesic at 0.01 mg/kg. The right back was incised, the right kidney was removed, and then the incision was sutured.
Renal IR treatment was performed about 7 days after single kidney removal. Specifically, rats were anesthetized by intraperitoneal administration of sodium pentobarbital (Tokyo Chemical Industry) at a dose of 50 mg/kg, and administered buprenorphine as an analgesic at 0.01 mg/kg. The left abdomen was incised, and the renal artery and vein was sandwiched with a clamp (Natsume Seisakusho) to cause ischemia for 35 minutes. During ischemia, the rats were allowed to lie on a heat-retaining plate set at 38°C, and after 35 minutes, the clamp was removed for reperfusion. After visually confirming that blood flow to the kidney was recovered, the incision was sutured. The sham group was a sham-operated group in which neither ischemia nor reperfusion treatment was performed.
Animals were distributed on the day before renal IR treatment such that differences in the mean of the body weight in each group were not biased, and assigned animal numbers.
The compound of Example 7 (test substance) and physiological saline (Otsuka Pharmaceutical) as a vehicle were subcutaneously administered at 5 mL/kg using an injection needle 5 minutes before renal IR treatment. Saline was administered to the sham group in the same test. The administration dose is described in Table 16.
Specifically, the rats were allowed to inhale isoflurane for anesthesia on the day before renal IR treatment, and administered buprenorphine as an analgesic at 0.01 mg/kg. […] The incision was bonded with Dermabond Advanced (Johnson & Johnson). A pump containing a vehicle was also embedded in the sham group in the same test. The administration dose is described in Table 16.
After renal IR treatment, blood was collected through the tail vein on Day1, Day2, and Day3 to obtain serum. In addition, after renal IR treatment, rats were euthanized by exsanguination through the abdominal aorta under isoflurane anesthesia on Day3.
The respective concentrations of serum creatinine (sCre) and blood urea nitrogen (BUN) were measured using an automatic analyzer 7180 (Hitachi High-Tech).

EP3 receptor = molecular target: T2, EP3 receptor (Homo sapiens, UniProt P43115); assay: agonist activity on human EP3 receptor (intracellular calcium concentration, EP3-Chem1 cells); type: cell-based; conditions: agonist activity on the EP3 receptor
T2 construct: expressed in transfected cells; host or cells: EP3-Chem1
T2 sequence (P43115 1-390): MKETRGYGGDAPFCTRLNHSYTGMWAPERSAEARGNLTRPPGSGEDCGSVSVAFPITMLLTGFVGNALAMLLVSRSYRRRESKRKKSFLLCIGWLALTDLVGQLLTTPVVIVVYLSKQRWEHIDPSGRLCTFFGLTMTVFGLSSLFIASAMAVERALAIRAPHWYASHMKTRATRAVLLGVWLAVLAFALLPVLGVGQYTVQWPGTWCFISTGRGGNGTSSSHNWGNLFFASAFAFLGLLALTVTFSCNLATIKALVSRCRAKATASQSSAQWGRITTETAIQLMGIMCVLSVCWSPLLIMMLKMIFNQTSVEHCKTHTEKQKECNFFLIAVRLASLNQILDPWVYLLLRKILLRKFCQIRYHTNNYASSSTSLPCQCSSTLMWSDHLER
Procedure: as §1
The test compound and control substances (PGE2 and iloprost) were dissolved in dimethyl sulfoxide (DMSO) to prepare a 10 mmol/L solution. The prepared 10 mmol/L solution was thawed at the time of use, serially diluted using DMSO, and diluted with a buffer solution 1 for measurement (Hank's balanced salt solution (Thermofischer scientific) containing 1 w/v% human serum albumin (Sigma), 2 µmol/L indomethacin (Sigma), 2.5 mmol/L probenecid, and 10 mmol/L HEPES-NaOH (pH7.4)) or a buffer solution 2 for measurement (D-PBS (Nacalai Tesque) containing 0.1 w/v% human serum albumin, 2 µmol/L diclofenac (Sigma), and 1 mmol/L 3-isobutyl-1-methylxanthine (Sigma)) to perform experiments.

EP4 = molecular target: T3, EP4 (Homo sapiens, UniProt P35408); assay: agonist activity on human EP4 receptor (cAMP production, EP4-CHO cells); type: cell-based
T3 construct: expressed in transfected cells; host or cells: CHO (EP4-CHO)
T3 sequence (P35408 whole entry): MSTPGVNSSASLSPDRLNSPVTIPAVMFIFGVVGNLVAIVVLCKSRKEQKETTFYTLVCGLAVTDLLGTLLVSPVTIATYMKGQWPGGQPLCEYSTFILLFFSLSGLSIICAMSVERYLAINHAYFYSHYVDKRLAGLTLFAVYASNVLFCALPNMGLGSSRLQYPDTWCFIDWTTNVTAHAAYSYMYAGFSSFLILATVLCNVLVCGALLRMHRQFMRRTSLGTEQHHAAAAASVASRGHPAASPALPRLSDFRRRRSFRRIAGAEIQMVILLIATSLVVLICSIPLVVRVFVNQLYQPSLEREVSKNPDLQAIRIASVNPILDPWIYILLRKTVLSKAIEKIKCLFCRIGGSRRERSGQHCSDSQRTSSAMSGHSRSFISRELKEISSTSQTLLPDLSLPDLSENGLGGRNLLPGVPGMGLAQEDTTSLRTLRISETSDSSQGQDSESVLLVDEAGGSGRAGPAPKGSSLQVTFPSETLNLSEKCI
Procedure: as §1, §2, §3

EP2 = molecular target: T4, EP2 (Homo sapiens, UniProt P43116); assay: agonist activity on human EP2 receptor (cAMP production, EP2-CHO cells); type: cell-based
T4 construct: expressed in transfected cells; host or cells: CHO (EP2-CHO)
T4 sequence (P43116 whole entry): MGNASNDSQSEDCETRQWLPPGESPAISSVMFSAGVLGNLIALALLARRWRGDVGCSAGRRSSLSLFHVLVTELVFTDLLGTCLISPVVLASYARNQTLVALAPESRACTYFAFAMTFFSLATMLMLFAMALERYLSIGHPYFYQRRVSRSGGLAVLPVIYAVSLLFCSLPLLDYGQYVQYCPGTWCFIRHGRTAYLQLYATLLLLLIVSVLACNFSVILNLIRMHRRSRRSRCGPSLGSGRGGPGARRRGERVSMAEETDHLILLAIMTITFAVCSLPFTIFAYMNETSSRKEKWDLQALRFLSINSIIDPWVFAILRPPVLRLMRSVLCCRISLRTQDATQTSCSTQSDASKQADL
Procedure: as §1, §2, §3

EP1 = molecular target: T5, EP1 (Homo sapiens, UniProt P34995); assay: agonist activity on human EP1 receptor (intracellular calcium concentration, EP1-CHO cells); type: cell-based
T5 construct: expressed in transfected cells; host or cells: CHO (EP1-CHO)
T5 sequence (P34995 1-402): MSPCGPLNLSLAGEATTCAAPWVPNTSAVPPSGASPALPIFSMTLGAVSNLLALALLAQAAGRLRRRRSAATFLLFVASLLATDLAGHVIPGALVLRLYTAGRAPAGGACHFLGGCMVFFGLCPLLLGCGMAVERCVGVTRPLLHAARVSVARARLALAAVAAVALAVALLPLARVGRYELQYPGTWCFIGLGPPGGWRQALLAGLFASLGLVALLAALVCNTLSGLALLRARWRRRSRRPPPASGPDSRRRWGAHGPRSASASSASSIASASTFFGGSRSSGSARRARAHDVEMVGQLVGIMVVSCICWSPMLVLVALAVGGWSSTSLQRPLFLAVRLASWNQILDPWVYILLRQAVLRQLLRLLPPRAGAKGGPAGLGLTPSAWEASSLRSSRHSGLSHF
How it was run: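 Calcium 6 dye loaded 1 h at room temperature in HBSS with 1% human serum albumin, 2 µmol/L indomethacin, 2.5 mmol/L probenecid, pH 7.4; agonists then added at various concentrations. Intracellular calcium read by fluorescence (ex 480/em 540 nm) in CHO cells expressing human EP1 or Chem1 cells expressing human EP3.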

T1 sequence (P43119 whole entry): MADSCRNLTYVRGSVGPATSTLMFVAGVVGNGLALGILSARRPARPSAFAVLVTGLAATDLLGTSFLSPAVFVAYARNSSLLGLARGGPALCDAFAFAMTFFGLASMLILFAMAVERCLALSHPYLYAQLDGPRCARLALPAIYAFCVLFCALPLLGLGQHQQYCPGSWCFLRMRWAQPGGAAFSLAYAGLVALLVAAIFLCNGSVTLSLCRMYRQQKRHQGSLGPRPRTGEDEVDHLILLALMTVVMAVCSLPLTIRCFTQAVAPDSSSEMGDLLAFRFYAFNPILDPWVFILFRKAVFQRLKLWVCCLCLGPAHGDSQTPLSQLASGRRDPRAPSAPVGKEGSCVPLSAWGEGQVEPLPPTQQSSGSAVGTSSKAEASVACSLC

(1R,2R,3aS,10aR)-1-{(1E,3ξ)-3-[1-(2,5-difluorophenyl)cyclobutyl]-3-hydroxy-1-propen-1-yl}-2-hydroxy-2,3,3a,9,10,10a-hexahydro-1H-benzo[b]cyclopenta[f]oxepine-6-carboxylic acid [Example 7-30]
EC50 (IP): > 10 µM | blood urea nitrogen (BUN) concentration mean ([1]; IR 0.3 µg/kg/min, day 1): 96.6 | serum creatinine (sCre) concentration mean ([1]; IR 0.3 µg/kg/min, day 1): 1.78 | blood urea nitrogen (BUN) concentration mean ([1]; IR 0.3 µg/kg/min, day 2): 94.3 | serum creatinine (sCre) concentration mean ([1]; IR 0.3 µg/kg/min, day 2): 1.42 | blood urea nitrogen (BUN) concentration mean ([1]; IR 0.3 µg/kg/min, day 3): 79.8 | serum creatinine (sCre) concentration mean ([1]; IR 0.3 µg/kg/min, day 3): 1.00 | blood urea nitrogen (BUN) concentration mean ([1]; IR 3.0 µg/kg/min, day 1): 89.5 | serum creatinine (sCre) concentration mean ([1]; IR 3.0 µg/kg/min, day 1): 1.45 | blood urea nitrogen (BUN) concentration mean ([1]; IR 3.0 µg/kg/min, day 2): 81.8 | serum creatinine (sCre) concentration mean ([1]; IR 3.0 µg/kg/min, day 2): 1.10 | blood urea nitrogen (BUN) concentration mean ([1]; IR 3.0 µg/kg/min, day 3): 70.7 | serum creatinine (sCre) concentration mean ([1]; IR 3.0 µg/kg/min, day 3): 0.83 | EC50 (EP3 receptor): 0.04 µM | EC50 (EP4): 1.5 µM | EC50 (EP2): > 10 µM | EC50 (EP1): > 10 µM
